From patent publication US12545639B2, “3-substituted phenylamidine compounds, preparation and use thereof” (PI INDUSTRIES LTD., priority 2019, dated 2026) come the findings set out here.

One test relates to Phakopsora pachyrhizi. Briefly: Phakopsora pachyrhizi test in soybean, preventive, in vivo on plants. The settings on record: in Glycine max, read-out: Efficacy (% control), disease severity compared to the untreated check.
A further test has as its system Alternaria solani. Briefly: Alternaria solani (early blight of tomato/potato) in vitro test, radial growth on potato dextrose agar. The test is classed as cell-based. The settings on record: 168 h, 300 ppm in potato dextrose agar, 25° C., 60% relative humidity, seven days, read-out: control compared to the untreated check (radial growth).
Another test deals with Pyricularia oryzae. Briefly: microbe, parasite or virus in culture. The settings on record: 168 h, read-out: control compared to the untreated check (radial growth). The class given is cell-based.
The test system of another test is Rhizoctonia solani. Briefly: Rhizoctonia solani (rice sheath blight/potato black scurf) in vitro test, radial growth on potato dextrose agar. The settings on record: 168 h, 300 ppm in potato dextrose agar, 25° C., 60% relative humidity, seven days, read-out: control compared to the untreated check (radial growth). The test is classed as cell-based.

For the compound `CCN(C)C=Nc1cc(C)cc(Cc2cccnc2)c1Cl` [Compound 66, N′-(2-chloro-5-methyl-3-(pyridin-3-ylmethyl)phenyl)-N-ethyl-N-methylformimidamide], the pest or weed control at 500 ppm in the test with Phakopsora pachyrhizi was at least 70%. Also, the inhibition of growth at 300 ppm with Alternaria solani and in the test with Pyricularia oryzae was at least 70% each time.

In the case of `CCN(C)C=Nc1cc(OC)cc(Cc2ccccc2)c1C` [Compound 298, N′-(3-benzyl-5-methoxy-2-methylphenyl)-N-ethyl-N-methylformimidamide], the inhibition of growth at 300 ppm with Rhizoctonia solani, in the test with Alternaria solani and in the test with Pyricularia oryzae was at least 70% throughout. In addition, in the test on Phakopsora pachyrhizi, the pest or weed control at 500 ppm is at least 70%.

Consider `CCN(C)C=Nc1cc(C)cc(Cc2cccc(C(F)(F)F)c2)c1Cl` [Compound 53, N′-(2-chloro-5-methyl-3-(3-(trifluoromethyl)benzyl)phenyl)-N-ethyl-N-methylformimidamide], for which the pest or weed control at 500 ppm in the test on Phakopsora pachyrhizi is at least 70%. For the same compound, in the test with Alternaria solani, the inhibition of growth at 300 ppm is at least 70%.

Take `CCN(C)C=Nc1cc(Cl)cc(Nc2cnccn2)c1C` [Compound 211, N′-(5-chloro-2-methyl-3-(pyrazin-2-ylamino)phenyl)-N-ethyl-N-methylformimidamide]: in the test with Phakopsora pachyrhizi, the pest or weed control at 500 ppm is at least 70%.

For `CCN(C)C=Nc1cc(C)cc(N(C)c2ncccc2C(F)(F)F)c1Cl` [Compound 157, N′-(2-chloro-5-methyl-3-(methyl(3-(trifluoromethyl)pyridin-2-yl)amino)phenyl)-N-ethyl-N-methylformimidamide], the pest or weed control at 500 ppm in the test on Phakopsora pachyrhizi was at least 70%. Besides, the inhibition of growth at 300 ppm in the test with Alternaria solani and in the test with Pyricularia oryzae was at least 70% each time.

`CCN(C)C=Nc1cc(OC)cc(Cc2cc(F)ccc2C)c1C` [Compound 281, N-ethyl-N′-(3-(5-fluoro-2-methylbenzyl)-5-methoxy-2-methylphenyl)-N-methylformimidamide]: the pest or weed control at 500 ppm with Phakopsora pachyrhizi is at least 70%.

As to `CCN(C)C=Nc1cc(C)cc(N(C)c2ccc(OC)cc2)c1Cl` [Compound 64, N′-(2-chloro-3-((4-methoxyphenyl)(methyl)amino)-5-methylphenyl)-N-ethyl-N-methylformimidamide], the inhibition of growth at 300 ppm with Rhizoctonia solani, in the test on Alternaria solani and in the test on Pyricularia oryzae was at least 70% throughout.

For `CCN(C)C=Nc1cc(C)cc(Nc2ccccc2OC(F)F)c1Cl` [Compound 177, N′-(2-chloro-3-((2-(difluoromethoxy)phenyl)amino)-5-methylphenyl)-N-ethyl-N-methylformimidamide], the inhibition of growth at 300 ppm with Rhizoctonia solani, in the test with Alternaria solani and with Pyricularia oryzae was at least 70% throughout.

As for `CCN(C)C=Nc1cc(OC)cc(Cc2cccc(C)c2)c1C` [Compound 278, N-ethyl-N′-(5-methoxy-2-methyl-3-(3-methylbenzyl)phenyl)-N-methylformimidamide], the pest or weed control at 500 ppm with Phakopsora pachyrhizi is at least 70%.

As to `CCN(C)C=Nc1cc(OC)cc(N(C)c2ccc(F)c(OC)c2)c1C` [Compound 284, N-ethyl-N′-(3-((4-fluoro-3-methoxyphenyl)(methyl)amino)-5-methoxy-2-methylphenyl)-N-methylformimidamide], the pest or weed control at 500 ppm in the test on Phakopsora pachyrhizi is at least 70%.

Take `CCN(C)C=Nc1cc(F)cc(N(C)c2ccccn2)c1C` [Compound 109, N-ethyl-N′-(5-fluoro-2-methyl-3-(methyl(pyridin-2-yl)amino)phenyl)-N-methylformimidamide]: in the test with Phakopsora pachyrhizi, the pest or weed control at 500 ppm was at least 70%.

For the compound `CCN(C)C=Nc1cc(C)cc(Nc2cc(C)cc(F)c2)c1Cl` [Compound 111, N′-(2-chloro-3-((3-fluoro-5-methylphenyl)amino)-5-methylphenyl)-N-ethyl-N-methylformimidamide], in the test with Phakopsora pachyrhizi, the pest or weed control at 500 ppm was at least 70%. Besides, the inhibition of growth at 300 ppm with Pyricularia oryzae was at least 70%.

Consider `CCN(C)C=Nc1cc(C)cc(N(C)c2cnccn2)c1Cl` [Compound 210, N′-(2-chloro-5-methyl-3-(methyl(pyrazin-2-yl)amino)phenyl)-N-ethyl-N-methylformimidamide], for which the pest or weed control at 500 ppm with Phakopsora pachyrhizi is at least 70%.

As for `CCN(C)C=Nc1cc(Cl)cc(Nc2ccccc2)c1C` [Compound 155, N′-(5-chloro-2-methyl-3-(phenylamino)phenyl)-N-ethyl-N-methylformimidamide], the pest or weed control at 500 ppm with Phakopsora pachyrhizi was at least 70%. Further, the inhibition of growth at 300 ppm with Alternaria solani and in the test with Pyricularia oryzae was at least 70% in each case.

On to `CCN(C)C=Nc1cc(F)cc(Cc2ccc(SC)cc2)c1C` [Compound 241, N-ethyl-N′-(5-fluoro-2-methyl-3-(4-(methylthio)benzyl)phenyl)-N-methylformimidamide], for which the inhibition of growth at 300 ppm in the test on Rhizoctonia solani, in the test on Alternaria solani and in the test with Pyricularia oryzae was at least 70% in each case.

In the case of `CCN(C)C=Nc1cc(C)cc(Nc2ccccn2)c1Cl` [Compound 85, N′-(2-chloro-5-methyl-3-(pyridin-2-ylamino)phenyl)-N-ethyl-N-methylformimidamide], the pest or weed control at 500 ppm in the test on Phakopsora pachyrhizi is at least 70%. Moreover, the inhibition of growth at 300 ppm with Alternaria solani was at least 70%.

On to `CCN(C)C=Nc1cc(F)cc(Nc2ccccn2)c1C` [Compound 95, N-ethyl-N′-(5-fluoro-2-methyl-3-(pyridin-2-ylamino)phenyl)-N-methylformimidamide], for which the pest or weed control at 500 ppm in the test on Phakopsora pachyrhizi is at least 70%.

`CCN(C)C=Nc1cc(C)cc(Nc2ncccc2C)c1Cl` [Compound 86, N′-(2-chloro-5-methyl-3-((3-methylpyridin-2-yl)amino)phenyl)-N-ethyl-N-methylformimidamide]: the pest or weed control at 500 ppm in the test on Phakopsora pachyrhizi is at least 70%. The inhibition of growth at 300 ppm in the test on Alternaria solani and in the test with Pyricularia oryzae was at least 70% each time.

Take `CCN(C)C=Nc1cc(C)cc(N(C)c2ccc3c(c2)OCCO3)c1Cl` [Compound 184, N′-(2-chloro-3-((2,3-dihydrobenzo[b][1,4]dioxin-6-yl)(methyl)amino)-5-methylphenyl)-N-ethyl-N-methylformimidamide]: the pest or weed control at 500 ppm with Phakopsora pachyrhizi is at least 70%.

As to `CCN(C)C=Nc1cc(F)cc(Nc2cnccn2)c1C` [Compound 193, N-ethyl-N′-(5-fluoro-2-methyl-3-(pyrazin-2-ylamino)phenyl)-N-methylformimidamide], the pest or weed control at 500 ppm with Phakopsora pachyrhizi was at least 70%.

Consider `CCN(C)C=Nc1cc(OC)cc(N(C)c2ccccc2OC)c1C` [Compound 270, N-ethyl-N′-(5-methoxy-3-((2-methoxyphenyl)(methyl)amino)-2-methylphenyl)-N-methylformimidamide], for which, in the test on Phakopsora pachyrhizi, the pest or weed control at 500 ppm is at least 70%.

Take `CCN(C)C=Nc1cc(OC)cc(Cc2ccc(F)c(Cl)c2)c1C` [Compound 282, N′-(3-(3-chloro-4-fluorobenzyl)-5-methoxy-2-methylphenyl)-N-ethyl-N-methylformimidamide]: the pest or weed control at 500 ppm with Phakopsora pachyrhizi is at least 70%.

As to `CCN(C)C=Nc1cc(C)cc(N(C)c2ncccn2)c1Cl` [Compound 192, N′-(2-chloro-5-methyl-3-(methyl(pyrimidin-2-yl)amino)phenyl)-N-ethyl-N-methylformimidamide], the pest or weed control at 500 ppm in the test on Phakopsora pachyrhizi is at least 70%.

As for `CCN(C)C=Nc1cc(C)cc(N(C)c2ccc(F)cc2F)c1Cl` [Compound 82, N′-(2-chloro-3-((2,4-difluorophenyl)(methyl)amino)-5-methylphenyl)-N-ethyl-N-methylformimidamide], the inhibition of growth at 300 ppm in the test with Rhizoctonia solani, in the test with Alternaria solani and with Pyricularia oryzae was at least 70% in each case.

As for `CCN(C)C=Nc1cc(C)cc(Nc2cnccn2)c1Cl` [Compound 194, N′-(2-chloro-5-methyl-3-(pyrazin-2-ylamino)phenyl)-N-ethyl-N-methylformimidamide], in the test with Phakopsora pachyrhizi, the pest or weed control at 500 ppm was at least 70%.

For the compound `CCN(C)C=Nc1cc(C)cc(NC(C)Cc2cnccn2)c1Cl` (stereo not drawn) [Compound 195, N′-(2-chloro-5-methyl-3-((1-(pyrazin-2-yl)propan-2-yl)amino)phenyl)-N-ethyl-N-methylformimidamide], the pest or weed control at 500 ppm in the test on Phakopsora pachyrhizi is at least 70%.

Take `CCN(C)C=Nc1cc(C)cc(NCc2cnc(C)cn2)c1Cl` [Compound 196, N′-(2-chloro-5-methyl-3-(((5-methylpyrazin-2-yl)methyl)amino)phenyl)-N-ethyl-N-methylformimidamide]: the pest or weed control at 500 ppm with Phakopsora pachyrhizi was at least 70%.

With `CCN(C)C=Nc1cc(C)cc(Cc2ccc(F)cc2Br)c1Cl` [Compound 215, N′-(3-(2-bromo-4-fluorobenzyl)-2-chloro-5-methylphenyl)-N-ethyl-N-methylformimidamide], the pest or weed control at 500 ppm in the test on Phakopsora pachyrhizi was at least 70%.

With `CCN(C)C=Nc1cc(F)cc(N(C)c2ncccc2C(F)(F)F)c1C` [Compound 153, N-ethyl-N′-(5-fluoro-2-methyl-3-(methyl(3-(trifluoromethyl)pyridin-2-yl)amino)phenyl)-N-methylformimidamide], the pest or weed control at 500 ppm in the test on Phakopsora pachyrhizi was at least 70%. For the same compound, the inhibition of growth at 300 ppm in the test on Alternaria solani is at least 70%.

As to `CCc1cccc(N(C)c2cc(F)cc(N=CN(C)CC)c2C)n1` [Compound 239, N-ethyl-N′-(3-((6-ethylpyridin-2-yl)(methyl)amino)-5-fluoro-2-methylphenyl)-N-methylformimidamide], the inhibition of growth at 300 ppm in the test with Rhizoctonia solani and in the test on Alternaria solani was at least 70% each time. Further, the pest or weed control at 500 ppm with Phakopsora pachyrhizi was at least 70%.

On to `CCN(C)C=Nc1cc(F)cc(Nc2ncccn2)c1C` [Compound 187, N-ethyl-N′-(5-fluoro-2-methyl-3-(pyrimidin-2-ylamino)phenyl)-N-methylformimidamide], for which the pest or weed control at 500 ppm in the test with Phakopsora pachyrhizi was at least 70%.

For `CCN(C)C=Nc1cc(OC)cc(Cc2ccc(Cl)cc2)c1C` [Compound 279, N′-(3-(4-chlorobenzyl)-5-methoxy-2-methylphenyl)-N-ethyl-N-methylformimidamide], the pest or weed control at 500 ppm in the test on Phakopsora pachyrhizi was at least 70%.
